Patent US20180028712A1, “SKIN-REGENERATING MATERIAL COMPRISING SYNERGISTIC COMBINATION OF METAL OXIDES” (ARGAMAN TECHNOLOGIES LTD., priority 2015, published 2018)

Legend:
[1] = tested on: HFF cell line; assay: Proliferation assay (Stage II), Alamar Blue viability of HFF cells
Procedure: (§1) For the treatments, the saturated solutions were diluted 1:10, 1:100, and 1:500 in the growth medium in a supernatant.
HFF cells were thawed and passaged at least once prior to assay performance. Exponentially growing culture was collected, centrifuged, counted and seeded in 96-well tissue culture plate at a density of 5000 cells/well.
The plate was incubated overnight at 37° C., humidified 5% CO2/air., to enable cells adherence to the wells.
The next day, the growth medium was replaced with the test item solutions in 5% and 1% FBS and vehicle control solution to achieve the final concentrations as designated in the following plate plan (final volume of 200 μl)
Plates were incubated for 24 hours at 37° C., humidified 5% CO2/air.
Following 24 hours, the medium was replaced with fresh growth medium containing 10% of Alamar Blue.

[2] = tested on: Human Foreskin Fibroblasts (HFF); conditions: 24 hours following the plate scratching
Procedure: as §1
HFF cells were thawed and passaged at least once prior to assay performance.

[Ag+].[Ag+].[Ag+].[Ag+].[O-2].[O-2].[O-2].[O-2] [TST, tetrasilver tetroxide]
cell proliferation / cytotoxicity result in words ([1]; HFF cells, 24 hours, summary of Table 1): cytotoxic
Number of cells (normalized) ([1]; percent viability on HFF cell line, 24 hours incubation and 4 hours with Alamar Blue, control = 100): 85
observation of scratched monolayer (proliferation along the scratch) ([2]; diluted 1:100, compared to control group): many proliferation centers along the scratch
observation of scratched monolayer (cytotoxicity) ([2]; saturated solution diluted 1:10): cytotoxic
